From patent US4581356A, “Triazine derivatives, and pharmaceutical compositions comprising the same” (Fujisawa Pharmaceutical Co., Ltd., priority 1983, dated 1986) come the findings set out here.

In one assay the test system is ulcers (stomach). Nature of the assay: Antiulcer activity: inhibition of ulcer area in rats immobilized in water bath. The class given is in vivo, Sprague-Dawley rats. The following applies: orally, 7 hours. As for the experimental part: Sprague-Dawley rats weighing about 200 g were used. Each animal was immobilized in a small cage and put in a water bath allowing to respire. The temperature of the water bath kept at 22° C. The test compound was administered orally just before the immobilization. Seven hours later, the animals were sacrificed and their stomachs were removed. The stomach was then fixed with 2% formalin. The area of ulcers was measured for each animal. The mean area (mm^2) in the test animals was compared with that in the control animals and inhibition effect (%) were calculated.

Assay [1] deals with platelet aggregation (ADP as inducer). Kind of assay: Inhibition of ADP-induced platelet aggregation in platelet rich plasma. As to conditions: Oryctolagus cuniculus, rabbit PRP, 37° C., ADP 2.5 μM, read-out: ID50 ADP. The format is cell-based. As for the experimental part: (§1) Platelet rich plasma (PRP) which contains 6.5-7.5×10^8 platelet/ml was prepared from rabbit blood. To the 200 μl of PRP, 5 μl of calcium chloride (1 mM) and 50 μl of pH 7.4 Tris-acetate solution (5 mM) containing 120 mM NaCl and test compound were added successively, and then stirred for 2 min. at 37° C. To the solution, 5 μl of adenosine diphosphate (ADP) (2.5 μM) or collagen (2.5 μg/ml) was added as an aggregation inducer. Aggregation was measured by using an aggregometer (NKK HEMA TRACER 1).

The next assay relates to blood pressure. Nature of the assay: Antihypertensive activity in uninephrectomized DOCA/saline hypertensive rats (mean arterial pressure). The class given is in vivo, male Wister rats. As to conditions: orally, DOCA rats. On the procedure:
Five-week old male Wister rats were uninephrectomized under anesthesia. Deoxycorticosterone acetate (DOCA) (30 mg/kg), suspended in peanut oil, was injected subcutaneously twice a week and 1% saline was substituted for the drinking water. Animals with mean blood pressure 150-200 mmHg were used for experiment between 5 and 7 weeks after surgery.
The test compounds were administered intraperitonealy or orally. Blood pressure was measured at the femoral artery by means of a pressure transducer and recorded as electrically integrated values of mean arterial pressure.

Assay [2] relates to platelet aggregation (collagen as inducer). Nature of the assay: Inhibition of collagen-induced platelet aggregation in platelet rich plasma. The following applies: Oryctolagus cuniculus, rabbit PRP, 37° C., collagen 2.5 μg/ml, read-out: ID50 Collagen. The class given is cell-based. As for the experimental part: as §1

In the case of `CN1C(=O)CCc2cc(C3=NNC(=O)NC3)ccc21` [Example 8 - (4), 6-(1-methyl-2-oxo-1,2,3,4-tetrahydroquinolin-6-yl)-4,5-dihydro-1,2,4-triazin-3(2H)-one], the “Effect (inhibition of ulcer area)” value in the assay with ulcers (stomach) (10 mg/kg (dose c)) is 68.0%; with ulcers (stomach) (32 mg/kg (dose d)), 80.0%. Moreover, the IC50 was 360 nM in assay [1] and 240 nM in assay [2]. The “Effect Max (mean ratio of maximum decrease of blood pressure)” value with blood pressure (0.1 mg/kg (dose a)) came out at 15%; with blood pressure (1 mg/kg (dose b)), 49%.
For `CN1C(=O)Cc2cc(C3=NNC(=O)NC3)ccc21` [Example 9 - (4), 6-(1-Methyl-2-indolinon-5-yl)-4,5-dihydro-1,2,4-triazin-3(2H)-one], the IC50 worked out at 4600 nM in assay [1] and 2700 nM in assay [2].
For `CC(=O)N1CCCc2cc(C3=NNC(=O)NC3C)ccc21` (stereo not drawn) [Example 10 - (5), 6-(1-acetyl-1,2,3,4-tetrahydroquinolin-6-yl)-5-methyl-4,5-dihydro-1,2,4-triazin-3(2H)-one], the figures for the IC50 in assay [1] and in assay [2] were 1400 nM and 540 nM, respectively. Besides, the “Effect Max (mean ratio of maximum decrease of blood pressure)” value in the assay on blood pressure (1 mg/kg (dose b)) is 40%.
As for `CC1NC(=O)NN=C1c1ccc2c(c1)CCCN2` (stereo not drawn) [Example 10 - (6), 6-(1,2,3,4-tetrahydroquinolin-6-yl)-5-methyl-4,5-dihydro-1,2,4-triazin-3(2H)-one], the IC50 in assay [1] was 1300 nM; in assay [2] it was 470 nM. The “Effect Max (mean ratio of maximum decrease of blood pressure)” value in the assay with blood pressure (0.1 mg/kg (dose a)) was found to be 33%; with blood pressure (1 mg/kg (dose b)), 57%.
Take `CC(=O)N1CCCc2ccc(C3=NNC(=O)NC3C)cc21` (stereo not drawn) [Example 11 - (3), 6-(1-Acetyl-1,2,3,4-tetrahydroquinolin-7-yl)-5-methyl-4,5-dihydro-1,2,4-triazin-3(2H)-one]: the IC50 was found to be 3700 nM in assay [1] and 1900 nM in assay [2].
The corresponding values for `CC1NC(=O)NN=C1c1ccc2c(c1)NCCC2` (stereo not drawn) [Example 11 - (4), 6-(1,2,3,4-Tetrahydroquinolin-7-yl)-5-methyl-4,5-dihydro-1,2,4-triazin-3(2H)-one] are 56000 nM and 22000 nM.
For the compound `CC1NC(=O)NN=C1c1ccc2c(ccc(=O)n2C)c1` (stereo not drawn) [Example 12 - (3), 6-(1-Methyl-2-oxo-1,2-dihydroquinolin-6-yl)-5-methyl-4,5-dihydro-1,2,4-triazin-3(2H)-one], the IC50 in assay [1] is 67 nM; in assay [2], 48 nM. The figures for the “Effect Max (mean ratio of maximum decrease of blood pressure)” value with blood pressure (0.1 mg/kg (dose a)) and in the assay with blood pressure (1 mg/kg (dose b)) were 40% and 58%, respectively.
Take `CC1NC(=O)NN=C1c1ccc2c(c1)CCCN2C(=O)C1CC1` (stereo not drawn) [Example 13, 6-(1-cyclopropanecarbonyl-1,2,3,4-tetrahydroquinolin-6-yl)-5-methyl-4,5-dihydro-1,2,4-triazin-3(2H)-one]: the IC50 in assay [1] stood at 160 nM; in assay [2] it was 34 nM.
The corresponding values for `CC1NC(=O)NN=C1c1ccc2c(c1)CCCN2C(=O)C1CCC1` (stereo not drawn) [Example 14, 6-(1-Cyclobutanecarbonyl-1,2,3,4-tetrahydroquinolin-6-yl)-5-methyl-4,5-dihydro-1,2,4-triazin-3(2H)-one] are 250 nM and 81 nM.
For the compound `CC1NC(=O)NN=C1c1ccc2c(c1)CCCN2C` (stereo not drawn) [Example 15, 6-(1-methyl-1,2,3,4-tetrahydroquinolin-6-yl)-5-methyl-4,5-dihydro-1,2,4-triazin-3(2H)-one], the IC50 was determined as 5800 nM in assay [1] and 2000 nM in assay [2]. Moreover, the “Effect Max (mean ratio of maximum decrease of blood pressure)” value in the assay on blood pressure (1 mg/kg (dose b)) is 68%.
